Source: US8367677B2, “Non-glycosylated/non-glycosidic/non-peptidic small molecule PSGL-1 mimetics for the treatment of inflammatory disorders” (Revotar Biopharmaceuticals AG, priority 2004, dated 2013)

How the values were obtained:
[1] = biological target: T1, human P-Selectin-IgG-chimera (Homo sapiens, UniProt P16109); experiment: Sialyl Lewis x Tyrosine Sulfate Assay (sLex TSA), P-selectin; type: binding; settings: for inhibition at 100 µM / P-Selectin [% Inhib.]: compound at 100 μM; for inhibition at 100 µM: read-out: P-Selectin [% Inhib.]
T1 sequence (P16109 42-771 limits assumed): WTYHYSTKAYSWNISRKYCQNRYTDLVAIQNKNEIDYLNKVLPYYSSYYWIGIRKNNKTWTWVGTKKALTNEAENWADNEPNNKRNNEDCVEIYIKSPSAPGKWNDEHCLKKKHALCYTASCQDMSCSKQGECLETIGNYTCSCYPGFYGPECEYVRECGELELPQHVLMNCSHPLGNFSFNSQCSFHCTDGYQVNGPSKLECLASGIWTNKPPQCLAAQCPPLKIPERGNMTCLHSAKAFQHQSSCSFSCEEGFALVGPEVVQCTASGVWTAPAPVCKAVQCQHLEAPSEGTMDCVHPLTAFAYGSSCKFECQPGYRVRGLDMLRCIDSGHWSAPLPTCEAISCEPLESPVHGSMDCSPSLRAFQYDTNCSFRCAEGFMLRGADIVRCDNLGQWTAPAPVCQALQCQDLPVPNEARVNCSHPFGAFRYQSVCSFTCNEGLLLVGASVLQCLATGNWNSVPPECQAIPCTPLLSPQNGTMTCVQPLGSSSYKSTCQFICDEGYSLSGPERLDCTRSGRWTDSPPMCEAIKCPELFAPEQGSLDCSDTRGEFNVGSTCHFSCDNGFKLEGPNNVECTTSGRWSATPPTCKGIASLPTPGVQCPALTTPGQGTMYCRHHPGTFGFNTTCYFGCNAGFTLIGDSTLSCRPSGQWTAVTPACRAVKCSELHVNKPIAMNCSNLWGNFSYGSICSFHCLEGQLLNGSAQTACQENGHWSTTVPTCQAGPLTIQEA
Procedure: (§1) Compounds of the present invention are assayed on a molecular level for their ability to inhibit the binding of P-, L-, or E-selectin chimeric molecules to sLe^x and tyrosinesulfate residues linked to a polymeric matrix as a PSGL-1 substitute.
(§2) Microtiter plates are coated overnight in carbonate buffer pH9.6 with goat anti human Fc mAB (10 μg/ml). After washing in assay buffer (25 mM 4-(2-hydroxyethyl)-1-piperazineethanesulfonic acid (HEPES), 150 mM NaCl, 1 mM CaCl2 pH7.4) and blocking (3% bovine serum albumin (BSA) in assay buffer) plates are incubated for 2 h at 37° C. with human P-Selectin-IgG-chimera (0.61 nM respectively 150 ng/mL) or human L-Selectin-IgG-chimera (0.61 nM respectively 89 ng/mL) or human E-Selectin-IgG-chimera (0.61 nM respectively 131 ng/mL). 5 μl of sLe^x-tyrosine sulfate polyacrylamide (1 mg/ml) carrying 15% sLe^x, 10% Tyrosine-sulfate and 5% biotin is complexed with 20 μl Streptavidin-Peroxidase solution (1 mg/ml) and 25 μl assay buffer without CaCl2. For use in the assay, the ligand complex is diluted 1:10000 in assay buffer and further diluted 1:1 with varying amounts of compounds in assay buffer incl. 2% DMSO. This mixture is added to the wells precoated with E- or P-selectin. After incubation for 2 h at 37° C., wells are washed for six times with in assay buffer incl. 0.005% Polyoxyethylenesorbitan monolaurate (TWEEN 20), developed for 10-15 min with 20 μl 3,3′,5,5′-tetramethylbenzidine (TMB)/H2O2 substrate solution and stopped with 20 μl […]. Bound sLe^x-Tyrosine sulfate ligand complex is determined by measuring optical density at 450 nm vs. 620 nm in a Fusion alpha-FP reader (sold from Packard Bioscience, Dreieich, Germany).

[2] = system: human E-selectin-IgG chimera; experiment: Flow chamber assay, cell adhesion and rolling under flow conditions, E-selectin; type: cell-based; settings: 125 μM compound, flow shear 1 dyne/cm^2
Procedure: (§3) To assess the capability of compounds to inhibit cell binding under dynamic conditions resembling the flow in a blood vessel, flow chamber assays addressing/testing binding of HL-60 cells/various cell lines to P-selectin, L-selectin and E-selectin chimeric molecules are performed.
(§4) Cell attachment under flow conditions are determined using a parallel flow chamber system. A 35 mm polystyrene culture dish is coated for 1 hour at room temperature with coating buffer (50 mM tris-(hydroxymethyl)aminomethane buffer (Tris), 150 mM NaCl, 2 mM CaCl2; pH 7,4) containing human E- or P-selectin-IgG chimera at concentrations of 2.5 μg/ml or 10 μg/ml, respectively. After removal of the coating solution non specific binding sites are blocked for an additional hour with 1% BSA in coating buffer at room temperature. After washing with assay buffer (“Roswell Park Memorial Institute 1640” (RPMI 1640)+10 mM HEPES) the dish is fitted into a parallel plate laminar flow chamber (sold from Glycotech, Rockville, Md.) and mounted on an inverted phase-contrast microscope (sold from Olympus, Hamburg, Germany) equipped with a CCD camera (JVC) that is connected to a PC. Employing a peristaltic pump (sold from Ismatec, Wertheim-Mondfeld, Germany) the re-circulating system is equilibrated with assay buffer containing 125 μM compound or vehicle control (DMSO). Cells (1 million/ml) are added to the chamber and allowed to distribute for 2 minutes at a high flow rate. The flow rate is then decreased resulting in a calculated flow shear of 1 dyne/cm^2. Video sequences of 10 low power fields are digitally recorded after 5 minutes continuous flow. The percentage of inhibition is calculated from the mean number of cells per field that attached to the coated dish surface in the presence versus absence of compound […].

[3] = biological target: T2, human L-Selectin-IgG-chimera (Homo sapiens, UniProt P14151); experiment: Sialyl Lewis x Tyrosine Sulfate Assay (sLex TSA), L-selectin; type: binding; settings: for inhibition at 100 µM / L-Selectin [% Inhib.]: compound at 100 μM; for inhibition at 100 µM: read-out: L-Selectin [% Inhib.]
T2 construct: fused on or other part: human IgG Fc part, a tag and dimerising handle that is captured by the goat anti-human Fc antibody on the plate
T2 sequence (P14151 39-318 limits assumed): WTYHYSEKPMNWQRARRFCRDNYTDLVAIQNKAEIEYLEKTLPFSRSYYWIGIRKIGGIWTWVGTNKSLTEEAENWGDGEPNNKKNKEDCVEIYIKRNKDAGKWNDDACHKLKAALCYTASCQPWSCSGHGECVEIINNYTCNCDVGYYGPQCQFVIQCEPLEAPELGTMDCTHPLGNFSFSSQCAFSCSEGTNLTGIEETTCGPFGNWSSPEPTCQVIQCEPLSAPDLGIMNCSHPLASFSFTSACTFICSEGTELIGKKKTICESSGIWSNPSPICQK
Procedure: as §1, §2

[4] = biological target: T3, human E-Selectin-IgG-chimera (Homo sapiens, UniProt P16581); experiment: Sialyl Lewis x Tyrosine Sulfate Assay (sLex TSA), E-selectin; type: binding; settings: for inhibition at 100 µM / E-Selectin [% Inhib.]: compound at 100 μM; for inhibition at 100 µM: read-out: E-Selectin [% Inhib.]
T3 construct: fused on or other part: human IgG Fc part, a tag and dimerising handle that is captured by the goat anti-human Fc antibody on the plate
T3 sequence (P16581 22-175 limits assumed): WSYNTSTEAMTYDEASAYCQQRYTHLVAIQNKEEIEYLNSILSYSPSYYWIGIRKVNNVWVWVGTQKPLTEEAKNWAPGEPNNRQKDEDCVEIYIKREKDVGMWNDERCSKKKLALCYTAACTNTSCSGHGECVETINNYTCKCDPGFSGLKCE
Procedure: as §1, §2

[5] = system: human P-selectin-IgG chimera; experiment: Flow chamber assay, cell adhesion and rolling under flow conditions, P-selectin; type: cell-based; settings: 125 μM compound, flow shear 1 dyne/cm^2
Procedure: as §3, §4

[6] = Parallel Artificial Membrane Permeation Assay (PAMPA); type: in vitro ADME; settings: 16 hours, room temperature; for [% flux] at pH 4.0: pH 4.0, 500 μM donor; for [% flux] at pH 7.4: pH 7.4, 500 μM donor
Procedure: The test compounds are dissolved at 10 mM in DMSO and diluted to 500 μM with PBS pH 7.4 or pH 4.0, respectively resulting in ‘donor solutions’. For use as an artificial membrane, a 1% solution of lecithin (w/v) in dodecane is prepared and sonicated. Then, 5 μl of the lecithin/dodecane mixture are carefully pipetted into each donor plate well. Immediately after the application of the artificial membrane, 150 μl of drug containing donor solutions are added to each well of the donor plate. Each well of the acceptor plate is filled with 300 μl buffer (PBS with 5% DMSO at pH 7.4 or pH 4.0, respectively) and the drug-filled donor plate is placed onto the acceptor plate, making sure the membrane is in contact with the buffer. After replacement of the lid, the assembled plates are transferred into a sealed box equipped with a moistured towel and incubated at room temperature for 16 hours. Then, the wells of the acceptor plate are analyzed with LC/MS.

| IC50 [1] | inhibition at 100 µM [1] | IC50 [3] | inhibition at 100 µM [3] | inhibition at 100 µM [4] | IC50 [4] | [% flux] at pH 4.0 [6] | [% flux] at pH 7.4 [6] | P-Selectin [% Inhib.] [1] | L-Selectin [% Inhib.] [3] | E-Selectin [% Inhib.] [4] | Compound | E-Selectin [% Inhib.] of cell attachment [2] | P-Selectin [% Inhib.] of cell attachment [5] |
| --- | --- | --- | --- | --- | --- | --- | --- | --- | --- | --- | --- | --- | --- |
| 7.6 µM | 92% | 14.6 µM | 81% | 46% |  |  |  |  |  |  | O=C(O)Cc1ccc(-c2ccccc2NC(=O)Cc2ccc(O)c(O)c2O)s1 [Compound 41, (5-{2-[2-(2,3,4-Trihydroxyphenyl)-acetylamino]-phenyl}-thiophen-2-yl)acetic acid] | 26% |  |
| 5.8 µM | 97% | 9.8 µM | 95% | 31% | 132 µM |  |  |  |  |  | O=C(O)Cc1ccc(-c2ccccc2NC(=O)c2cccc(-c3ccc(O)c(O)c3O)c2)s1 [Compound 48, (5-{2-[(2′,3′,4′-Trihydroxy-biphenyl-3-carbonyl)-amino]-phenyl}-thiophen-2-yl)-acetic acid] | 61% | 55% |
| 3.5 µM | 97% | 6.2 µM | 98% | 51% | 285 µM | 0% | 16% |  |  |  | O=C(/C=C/c1ccc(O)c(O)c1O)Nc1ccc(C(=O)O)cc1 [Compound 97] |  | 47% |
| 14.4 µM | 99% | 24.9 µM | 99% | 71% |  |  |  |  |  |  | O=C(/C=C/c1ccc(O)c(O)c1O)Nc1cccc(C(=O)O)c1 [Compound 99] | 28% | 96% |
|  |  |  |  |  |  |  |  | 93% | 95% | 50% | Cc1oc(-c2ccc(NC(=O)Cc3cc(O)c(O)c(O)c3)cc2)cc1C(=O)O [Compound 101] |  | 99% |
| 2.4 µM | 97% | 3.1 µM | 96% | 99% | 3.3 µM |  |  |  |  |  | O=C(O)Cc1ccc(-c2ccccc2NC(=O)CCc2cc(O)c(O)c(O)c2)s1 [Compound 102] | 35% | 11% |
| 14.8 µM | 79% | 26.2 µM | 66% | 53% | 8.7 µM | 0% | 1% |  |  |  | O=C(Cc1cc(O)c(O)c(O)c1)NCc1ccc(C(=O)O)cc1 [Compound 118] | 16% | 20% |
| 34.9 µM | 88% | 30.8 µM | 87% | 92% | 8.4 µM |  |  |  |  |  | O=C(CCc1cc(O)c(O)c(O)c1)NCc1ccc(C(=O)O)cc1 [Compound 120] | 21% | 21% |
|  |  |  |  |  |  | 12% | 12% | 73% | 77% | 29% | Cc1cccc(NC(=O)CCc2ccc(O)c(O)c2O)c1 [Compound 121] | 18% | 44% |
|  |  |  |  |  |  | 6% | 0% | 81% | 87% | 70% | Cc1cccc(NC(=O)Cc2ccc(O)c(O)c2O)c1 [Compound 122] | 27% | 22% |
|  |  |  |  |  |  | 27% | 0% |  |  |  | O=C(Cc1cc(O)c(O)c(O)c1)Nc1cccc(C(F)(F)F)c1 [Compound 123] | 51% |  |
|  |  |  |  |  |  | 100% | 0% |  |  |  | O=C(Cc1ccc(O)c(O)c1O)Nc1cc(Cl)cc(Cl)c1 [Compound 124] | 28% | 23% |
